SMILES strings stand for the structures.

In the assay the target is Histone deacetylase. Briefly: Inhibition of HDAC in human HeLa cell nuclear extract by fluorescence assay. The format is cell-based.
For orientation: IC50 means the concentration that gives 50% inhibition. `O=C(CCCC/C=C(\F)CS)Nc1ccccc1` returned a concentration for half-maximal inhibition (IC50) of 0.51 µM.
As for `O=C(NCCCCC/C=C(\F)CS)c1ccccc1`, the figure is 0.29 µM.
The figure for `O=C(CCCCC/C=C(\F)CS)Nc1ccccc1` is 0.36 µM.

These data come from ChEMBL document CHEMBL1159059, “Fluoroalkene modification of mercaptoacetamide-based histone deacetylase inhibitors” (Bioorg Med Chem, 2010).
